Results as given in US10953011B2, “Methods of treating virally associated cancers with histone deacetylase inhibitors” (priority 2019, dated 2021).
Like-named read-outs stand apart in the source and are kept apart here.

Columns and labels:
[1] = Single dose pharmacokinetics of oral nanatinostat in patients; type: in vivo, humans; conditions: human, serum; for AUC: read-out: AUC (ng-h/mL), geometric mean; for AUC(0-t): read-out: AUClast (ng-h/mL), geometric mean; for Cmax: read-out: Cmax (ng/mL), geometric mean; for Tmax: read-out: Tmax (h), median (range)
HDAC7 = target: T1, HDAC7 (Homo sapiens, UniProt Q8WUI4); assay: in vitro HDAC inhibition assay (fluorescence); type: biochemical; conditions: 1 h pre-incubation; 2 μM HDAC Substrate Class 2a; read-out: IC50 (μM) HDAC7
T1 sequence (Q8WUI4 1-952): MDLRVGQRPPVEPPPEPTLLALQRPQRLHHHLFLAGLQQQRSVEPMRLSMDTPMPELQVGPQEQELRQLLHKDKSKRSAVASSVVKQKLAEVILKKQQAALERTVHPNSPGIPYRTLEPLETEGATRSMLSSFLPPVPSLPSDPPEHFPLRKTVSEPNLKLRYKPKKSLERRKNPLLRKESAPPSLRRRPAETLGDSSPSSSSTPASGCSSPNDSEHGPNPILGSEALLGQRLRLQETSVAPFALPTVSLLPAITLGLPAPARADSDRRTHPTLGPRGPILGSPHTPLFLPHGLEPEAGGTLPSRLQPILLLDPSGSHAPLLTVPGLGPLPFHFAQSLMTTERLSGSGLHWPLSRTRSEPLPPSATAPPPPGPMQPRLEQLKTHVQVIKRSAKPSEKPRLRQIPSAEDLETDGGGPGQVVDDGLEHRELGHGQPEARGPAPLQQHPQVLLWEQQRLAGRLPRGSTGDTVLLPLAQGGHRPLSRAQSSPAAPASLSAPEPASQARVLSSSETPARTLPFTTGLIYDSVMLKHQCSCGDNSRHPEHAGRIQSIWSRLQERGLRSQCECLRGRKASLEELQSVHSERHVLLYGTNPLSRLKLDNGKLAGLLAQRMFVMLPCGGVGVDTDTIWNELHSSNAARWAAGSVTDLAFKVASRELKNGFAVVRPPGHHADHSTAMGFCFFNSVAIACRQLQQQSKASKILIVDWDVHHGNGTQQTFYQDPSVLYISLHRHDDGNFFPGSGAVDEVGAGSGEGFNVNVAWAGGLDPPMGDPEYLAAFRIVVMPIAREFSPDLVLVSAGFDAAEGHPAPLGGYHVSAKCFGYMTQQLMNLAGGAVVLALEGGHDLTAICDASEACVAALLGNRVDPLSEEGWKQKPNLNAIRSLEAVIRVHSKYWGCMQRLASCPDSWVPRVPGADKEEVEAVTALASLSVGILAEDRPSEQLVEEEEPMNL
Description: (§1) Briefly, all of the compounds are dissolved in DMSO. A series of dilutions of the compounds were prepared with 10% DMSO in HDAC assay buffer and 5 μl of the dilution was added to a 50 μl reaction so that the final concentration of DMSO is 1% in all of reactions. The compounds were pre-incubated in duplicate at RT for 1 hour in a mixture containing HDAC assay buffer, 5 μg BSA, HDAC enzyme (see Table 7) and a the particular HDACi. After 1 hour, the enzymatic reactions were initiated by the addition of HDAC substrate (BPS Bioscience) to a final concentration of 10 μM or 2 μM. The enzymatic reaction proceeded for 30 minutes at 37° C.
(§2) HDAC activity assays were performed in duplicates at each concentration. The fluorescent intensity data were analyzed using the computer software, Graphpad Prism. In the absence of the compound, the fluorescent intensity (Ft) in each data set was defined as 100% activity. In the absence of HDAC, the fluorescent intensity (Fb) in each data set was defined as 0% activity. The percent activity in the presence of each compound was calculated according to the following equation: % activity=(F−Fb)/(Ft−Fb), where F=the fluorescent intensity in the presence of the compound.
(§3) The values of % activity versus a series of compound concentrations were then plotted using non-linear regression analysis of Sigmoidal dose-response curve generated with the equation Y=B+(T−B)/1+10^((Log EC50-X)×Hill Slope), where Y=percent activity, B=minimum percent activity, T=maximum percent activity, X=logarithm of compound and Hill Slope=slope factor or Hill coefficient. The IC50 value was determined by the concentration causing a half-maximal percent activity.

HDAC11 = target: T2, HDAC11 (Homo sapiens, UniProt Q96DB2); assay: in vitro HDAC inhibition assay (fluorescence); type: biochemical; conditions: 1 h pre-incubation; 2 μM HDAC Substrate Class 2a; read-out: IC50 (μM) HDAC11
T2 sequence (Q96DB2 1-347): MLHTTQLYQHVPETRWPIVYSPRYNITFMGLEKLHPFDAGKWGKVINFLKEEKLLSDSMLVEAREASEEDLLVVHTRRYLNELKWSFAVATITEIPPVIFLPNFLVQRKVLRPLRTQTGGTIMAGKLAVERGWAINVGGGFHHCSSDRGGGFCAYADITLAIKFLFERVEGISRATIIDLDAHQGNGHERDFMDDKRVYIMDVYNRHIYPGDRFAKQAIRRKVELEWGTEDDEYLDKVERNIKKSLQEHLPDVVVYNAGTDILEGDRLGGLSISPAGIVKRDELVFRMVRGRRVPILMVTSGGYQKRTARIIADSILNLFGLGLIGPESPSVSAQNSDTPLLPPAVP
Description: as §1, §2, §3

HDAC5 = HDAC5 (Homo sapiens, UniProt Q9UQL6); assay: in vitro HDAC inhibition assay (fluorescence); type: biochemical; conditions: 1 h pre-incubation; 2 μM HDAC Substrate Class 2a; read-out: IC50 (μM) HDAC5
Description: as §1, §2, §3

HDAC4 = HDAC4 (Homo sapiens, UniProt P56524); assay: in vitro HDAC inhibition assay (fluorescence); type: biochemical; conditions: 1 h pre-incubation; 2 μM HDAC Substrate Class 2a; read-out: IC50 (μM) HDAC4
Description: as §1, §2, §3

[2] = tested on: P3HR1 Burkitt's lymphoma cells; assay: Cell death (7AAD) after Nstat, washout, then ganciclovir
Description: P3HR1 Burkitt's lymphoma cells were incubated with DMSO (solvent control) or Nstat for 3 days. After that time cell cultures were washed re-fed with ganciclovir (GCV) for an additional 3 days. All test conditions were run in triplicate. Cell death was measured by 7AAD staining.

[3] = 5 mg, A = 5 mg VRx-3996 p.o. and 450 mg Valganciclovir p.o., single dose
[4] = 10 mg, B = 10 mg VRx-3996 p.o. and 450 mg Valganciclovir p.o., single dose
[5] = 10 mg, C = 10 mg VRx-3996 p.o. and 900 mg Valganciclovir p.o., single dose

Chain of HDAC4 (P56524 whole entry): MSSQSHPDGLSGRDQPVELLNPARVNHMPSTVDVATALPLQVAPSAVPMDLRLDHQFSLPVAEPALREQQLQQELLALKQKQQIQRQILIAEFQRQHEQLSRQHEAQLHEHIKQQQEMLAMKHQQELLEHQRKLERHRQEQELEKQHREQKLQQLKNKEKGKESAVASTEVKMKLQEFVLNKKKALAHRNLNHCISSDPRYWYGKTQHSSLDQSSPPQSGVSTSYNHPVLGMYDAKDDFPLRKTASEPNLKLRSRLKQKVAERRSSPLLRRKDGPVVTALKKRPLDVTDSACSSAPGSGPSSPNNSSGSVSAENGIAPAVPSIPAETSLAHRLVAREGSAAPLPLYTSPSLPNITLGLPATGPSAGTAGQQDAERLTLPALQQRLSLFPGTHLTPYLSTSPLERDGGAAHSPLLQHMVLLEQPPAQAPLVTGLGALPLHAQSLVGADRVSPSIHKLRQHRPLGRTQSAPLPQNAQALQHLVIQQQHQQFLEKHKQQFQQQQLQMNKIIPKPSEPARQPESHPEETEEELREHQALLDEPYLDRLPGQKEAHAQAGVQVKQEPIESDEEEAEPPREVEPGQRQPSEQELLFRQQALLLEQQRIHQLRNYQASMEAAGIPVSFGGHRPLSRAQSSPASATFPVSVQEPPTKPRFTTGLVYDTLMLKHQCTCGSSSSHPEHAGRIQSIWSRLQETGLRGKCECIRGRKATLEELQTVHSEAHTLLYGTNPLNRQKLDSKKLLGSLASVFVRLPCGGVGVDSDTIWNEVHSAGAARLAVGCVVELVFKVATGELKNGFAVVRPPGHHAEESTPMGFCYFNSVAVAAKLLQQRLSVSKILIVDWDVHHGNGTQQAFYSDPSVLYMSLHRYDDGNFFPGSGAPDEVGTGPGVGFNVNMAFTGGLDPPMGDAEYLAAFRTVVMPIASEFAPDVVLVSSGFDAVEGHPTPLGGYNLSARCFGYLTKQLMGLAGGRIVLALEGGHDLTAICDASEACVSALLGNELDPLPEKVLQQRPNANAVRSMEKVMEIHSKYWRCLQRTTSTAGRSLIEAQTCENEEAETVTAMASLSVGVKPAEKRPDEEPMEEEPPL
Chain of HDAC5 (Q9UQL6 whole entry): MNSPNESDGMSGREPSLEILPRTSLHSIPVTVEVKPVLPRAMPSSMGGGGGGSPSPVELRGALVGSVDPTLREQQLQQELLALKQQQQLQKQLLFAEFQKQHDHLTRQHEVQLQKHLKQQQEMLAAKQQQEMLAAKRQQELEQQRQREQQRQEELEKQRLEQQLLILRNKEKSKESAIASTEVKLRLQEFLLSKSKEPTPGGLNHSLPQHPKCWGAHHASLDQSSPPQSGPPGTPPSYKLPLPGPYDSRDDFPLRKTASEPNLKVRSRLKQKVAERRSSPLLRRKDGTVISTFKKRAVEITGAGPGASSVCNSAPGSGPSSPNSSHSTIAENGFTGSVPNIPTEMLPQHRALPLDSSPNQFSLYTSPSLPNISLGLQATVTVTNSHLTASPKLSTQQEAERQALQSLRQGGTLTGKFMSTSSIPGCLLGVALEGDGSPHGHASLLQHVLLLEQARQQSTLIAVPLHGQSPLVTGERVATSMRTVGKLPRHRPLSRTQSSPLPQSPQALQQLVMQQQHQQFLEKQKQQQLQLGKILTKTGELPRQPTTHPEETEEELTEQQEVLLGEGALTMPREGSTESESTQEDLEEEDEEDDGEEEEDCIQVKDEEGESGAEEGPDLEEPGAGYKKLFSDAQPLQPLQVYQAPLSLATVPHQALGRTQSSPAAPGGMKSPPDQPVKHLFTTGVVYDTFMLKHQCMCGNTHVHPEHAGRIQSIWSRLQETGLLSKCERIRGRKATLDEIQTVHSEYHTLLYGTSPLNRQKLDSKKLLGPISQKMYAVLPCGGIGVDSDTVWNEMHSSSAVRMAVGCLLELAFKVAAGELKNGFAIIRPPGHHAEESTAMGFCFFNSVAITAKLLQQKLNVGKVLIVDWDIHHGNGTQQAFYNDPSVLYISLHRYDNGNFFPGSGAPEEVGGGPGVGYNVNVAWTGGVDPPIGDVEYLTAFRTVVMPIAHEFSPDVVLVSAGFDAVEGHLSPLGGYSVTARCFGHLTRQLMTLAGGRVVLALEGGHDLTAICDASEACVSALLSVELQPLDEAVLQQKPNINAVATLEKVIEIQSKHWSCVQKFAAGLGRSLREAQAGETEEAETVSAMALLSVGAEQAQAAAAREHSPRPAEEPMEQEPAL

Work on O=C(NO)c1cnc(N2C[C@@H]3[C@H](C2)[C@H]3NCc2ccc3cc(F)ccc3n2)nc1 [Nanatinostat, 2-((1R,5S,6s)-6-(((6-fluoroquinolin-2-yl)methyl)amino)-3-azabicyclo[3.1.0]hexan-3-yl)-N-hydroxypyrimidine-5-carboxamide] yielded an AUC [1, 3] of 117 ng·h/mL, an AUC(0-t) [1, 3] of 40.5 ng·h/mL and a Cmax [1, 3] of 18.5 ng/mL. It also gave a half-life ([1]; 5 mg, A = 5 mg VRx-3996 p.o. and 450 mg Valganciclovir p.o., single dose, read-out: Half-Life (h), geometric mean (converted)) of 2.18 h, a Tmax [1, 3] of 3 h and an AUC [1, 4] of 317 ng·h/mL. For the same molecule, the AUC(0-t) [1, 4] was 165 ng·h/mL, the Cmax [1, 4] was 62.6 ng/mL and the half-life ([1]; 10 mg, B = 10 mg VRx-3996 p.o. and 450 mg Valganciclovir p.o., single dose, read-out: Half-Life (h), geometric mean (converted)) was 1.17 h. For the same molecule, the Tmax [1, 4] was 2 h, the AUC [1, 5] was 322 ng·h/mL and the AUC(0-t) [1, 5] was 227 ng·h/mL. For the same molecule, the Cmax [1, 5] was 78.9 ng/mL, the half-life ([1]; 10 mg, C = 10 mg VRx-3996 p.o. and 900 mg Valganciclovir p.o., single dose, read-out: Half-Life (h), geometric mean (converted)) was 1.67 h and the Tmax [1, 5] was 1 h. For the same molecule, the half-life ([1]; humans, oral, summary of Table 6, read-out: T1/2 (converted)) was ~2 h, the IC50 (HDAC7) was 1.6 µM and the IC50 (HDAC11) was 2.8 µM. The IC50 (HDAC5) was 0.39 µM, the IC50 (HDAC4) was 1 µM and the “Increase of cytotoxic activity when combined with Ganciclovir” value [2] was ~40%. The “Cell cytotoxicity when combined with ganciclovir” value ([2]; EBV infected cell line, seen even after Nstat removal) was “increases cell cytotoxicity”.
